Experimental data published in article PMC11500008, “Novel quinazolin-4-one based derivatives bearing 1,2,3-triazole and glycoside moieties as potential cytotoxic agents through dual EGFR and VEGFR-2 inhibitory activity” (Scientific Reports, 2024).
Read-outs that look alike come from different tables or passages of the source.

What was measured:
HepG-2 cell line = experiment: MTT cytotoxicity assay, HepG-2; format: cell-based; conditions: Homo sapiens, read-out: IC50 (mean±SD) HepG-2
Excerpt: (§1) The recently incorporated quinazolinone-based targets 1–4, 6–13 underwent evaluation for their cytotoxic effects with in vitro employing MTT technique, according to the procedure that has been published[48]–[50], utilizing human fibroblast-derived BJ-1 normal cell line, and human cancer liver HepG-2, breast MCF-7, and colon HCT-116 cell lines. These cell lines were purchased from Karolinska Center, Department of Oncology and Pathology, Karolinska Institute and Hospital, Stockholm, Sweden, There were further details in the supplemental file.
(§2) The cell lines were obtained from Karolinska Center, Department of Oncology and Pathology, Karolinska Institute and Hospital, Stockholm, Sweden as follows: human liver HepG-2, breast MCF-7, and colorectal HCT-116 cancer cell lines and human fibroblast-derived BJ-1 normal cell line. Exponentially, cells were placed in 10^4 cells/ well for 24 h, and then add fresh medium which containing different concentration of the tested sample. Serial two-fold dilution of the tested sample were added using a multichannel pipette. Moreover, all cells were cultivated at 37 °C, 5% CO2 and 95% humidity. Also, incubation of control cells occurred at 37 °C. However, after incubation for 24 h different concentrations of sample (25, 12.5, 6.25 and 3.125 µM) were added and continued the incubation for 48 h, then, add the crystal violet solution 1% to each well for 0.5 h to examine viable cells. Rinse the wells using water until no stain. After that, add 30% glacial acetic acid to all wells with shaking plates on Microplate reader (TECAN, Inc.) to measure the absorbance, using a test wavelength of 490 nm. Besides, compare the treated samples with the control cell. The cytotoxicity was estimated by IC50 in (μM), the concentration that inhibits 50% of growth of cancer cell.

MCF-7 cell line = experiment: MTT cytotoxicity assay, MCF-7; format: cell-based; conditions: Homo sapiens, read-out: IC50 (mean±SD) MCF-7
Excerpt: as §1, §2

HCT-116 cell line = experiment: MTT cytotoxicity assay, HCT-116; format: cell-based; conditions: Homo sapiens, read-out: IC50 (mean±SD) HCT-116
Excerpt: as §1, §2

BJ-1 normal cell line = experiment: MTT cytotoxicity assay, normal BJ-1 fibroblasts (safety profile); format: cell-based; conditions: Homo sapiens, read-out: IC50 (mean±SD) BJ-1
Experimental: […]. The safety profiles of all derivatives were assessed through cytotoxic evaluation using human fibroblast-derived BJ-1 normal cell lines. […].
as §1, §2

VEGFR-2 = VEGFR-2 (Homo sapiens, UniProt P35968); experiment: In vitro VEGFR-2 inhibition assay (ELISA); conditions: read-out: IC50 (mean ± SD) VEGFR-2; average of three values
EGFR = EGFR (Homo sapiens, UniProt P00533); experiment: In vitro EGFR inhibition assay (Kinase-Glo luminescence)
[1] = HepG2, HepG-2 liver cancer cells, 48 h incubation, mean of three values
[2] = MCF7, MCF-7 breast cancer cells, 48 h incubation, mean of three values
[3] = HCT-116 colorectal cancer cells, 48 h incubation, mean of three values
[4] = BJ-1 normal fibroblast-derived cells, 48 h incubation, mean of three values

Sequence of EGFR (P00533 25-1210): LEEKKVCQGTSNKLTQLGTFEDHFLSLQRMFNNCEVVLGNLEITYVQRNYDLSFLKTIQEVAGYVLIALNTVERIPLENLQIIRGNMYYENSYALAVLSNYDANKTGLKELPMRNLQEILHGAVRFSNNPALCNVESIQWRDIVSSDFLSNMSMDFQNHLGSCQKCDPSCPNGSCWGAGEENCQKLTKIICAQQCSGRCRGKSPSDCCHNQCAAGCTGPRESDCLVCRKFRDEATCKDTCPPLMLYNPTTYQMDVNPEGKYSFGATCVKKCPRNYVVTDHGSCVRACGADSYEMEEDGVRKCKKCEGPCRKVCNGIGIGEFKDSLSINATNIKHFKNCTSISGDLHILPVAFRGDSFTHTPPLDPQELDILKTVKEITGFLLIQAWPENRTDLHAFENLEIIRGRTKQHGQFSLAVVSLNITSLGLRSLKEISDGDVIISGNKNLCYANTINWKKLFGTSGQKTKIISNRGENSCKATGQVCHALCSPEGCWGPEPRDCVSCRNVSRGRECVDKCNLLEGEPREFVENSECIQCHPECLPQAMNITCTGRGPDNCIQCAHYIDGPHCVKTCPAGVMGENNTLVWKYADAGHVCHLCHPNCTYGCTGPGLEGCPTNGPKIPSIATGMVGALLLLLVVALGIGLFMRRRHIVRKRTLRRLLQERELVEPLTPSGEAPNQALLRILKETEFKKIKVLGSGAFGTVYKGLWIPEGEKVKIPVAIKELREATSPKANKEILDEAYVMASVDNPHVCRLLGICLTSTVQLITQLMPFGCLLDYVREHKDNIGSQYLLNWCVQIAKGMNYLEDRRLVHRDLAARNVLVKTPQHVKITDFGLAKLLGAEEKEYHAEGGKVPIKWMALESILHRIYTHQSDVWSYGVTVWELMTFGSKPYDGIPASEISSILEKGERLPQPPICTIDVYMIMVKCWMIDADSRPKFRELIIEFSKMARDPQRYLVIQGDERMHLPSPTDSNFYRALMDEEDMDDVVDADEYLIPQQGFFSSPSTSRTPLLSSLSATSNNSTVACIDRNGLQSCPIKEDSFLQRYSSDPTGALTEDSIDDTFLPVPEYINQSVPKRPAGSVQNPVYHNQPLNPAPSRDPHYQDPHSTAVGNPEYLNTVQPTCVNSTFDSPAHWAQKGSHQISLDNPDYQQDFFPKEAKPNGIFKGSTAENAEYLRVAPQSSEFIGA
Sequence of VEGFR-2 (P35968 20-1356): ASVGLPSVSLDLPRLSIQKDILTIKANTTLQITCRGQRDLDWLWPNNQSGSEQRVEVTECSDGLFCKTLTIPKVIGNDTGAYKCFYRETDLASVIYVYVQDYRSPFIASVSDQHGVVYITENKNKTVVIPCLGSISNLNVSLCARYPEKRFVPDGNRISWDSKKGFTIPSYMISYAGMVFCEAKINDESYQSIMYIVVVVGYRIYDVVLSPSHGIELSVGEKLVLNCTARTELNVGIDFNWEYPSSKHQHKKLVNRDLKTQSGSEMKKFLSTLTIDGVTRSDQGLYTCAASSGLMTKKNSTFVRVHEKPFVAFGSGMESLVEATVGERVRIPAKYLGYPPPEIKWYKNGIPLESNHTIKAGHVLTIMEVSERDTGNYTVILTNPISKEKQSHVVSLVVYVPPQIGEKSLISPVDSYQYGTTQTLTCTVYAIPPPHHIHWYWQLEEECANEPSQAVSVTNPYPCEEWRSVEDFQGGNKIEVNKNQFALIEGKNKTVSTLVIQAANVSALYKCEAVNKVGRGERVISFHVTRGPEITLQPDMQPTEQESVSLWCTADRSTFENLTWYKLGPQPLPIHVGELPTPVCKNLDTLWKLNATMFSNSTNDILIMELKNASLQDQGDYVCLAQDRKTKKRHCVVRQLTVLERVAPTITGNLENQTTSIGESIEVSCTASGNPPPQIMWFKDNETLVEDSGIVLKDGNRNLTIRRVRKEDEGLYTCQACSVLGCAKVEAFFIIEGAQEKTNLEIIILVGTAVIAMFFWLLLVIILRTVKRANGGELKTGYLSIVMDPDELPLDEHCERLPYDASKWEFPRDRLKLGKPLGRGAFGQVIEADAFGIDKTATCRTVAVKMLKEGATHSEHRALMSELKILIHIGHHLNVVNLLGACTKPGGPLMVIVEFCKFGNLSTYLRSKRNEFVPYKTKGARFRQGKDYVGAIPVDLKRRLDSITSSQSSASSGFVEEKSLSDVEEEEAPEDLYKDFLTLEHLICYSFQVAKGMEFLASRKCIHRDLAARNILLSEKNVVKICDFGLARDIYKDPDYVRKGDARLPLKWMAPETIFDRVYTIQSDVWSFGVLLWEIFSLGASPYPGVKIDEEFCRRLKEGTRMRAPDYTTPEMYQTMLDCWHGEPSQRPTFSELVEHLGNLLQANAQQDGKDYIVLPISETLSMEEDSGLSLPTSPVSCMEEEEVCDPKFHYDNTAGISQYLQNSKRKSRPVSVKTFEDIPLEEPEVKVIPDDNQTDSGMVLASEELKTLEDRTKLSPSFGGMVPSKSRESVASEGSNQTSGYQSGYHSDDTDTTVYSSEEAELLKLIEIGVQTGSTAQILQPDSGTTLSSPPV

Row | melting point [°C] | IC50 (VEGFR-2) [µM] | IC50 (EGFR) [µM] | SMILES | IC50 (HepG-2 cell line; [1]) [µM] | IC50 (MCF-7 cell line; [2]) [µM] | IC50 (HCT-116 cell line; [3]) [µM] | IC50 (BJ-1 normal cell line; [4]) [µM] | IC50 (HepG-2 cell line; HepG2, 48 h) [µM] | IC50 (MCF-7 cell line; MCF7, 48 h) [µM] | IC50 (HCT-116 cell line; HCT-116, 48 h) [µM] | IC50 (BJ-1 normal cell line; Fibroblast, 48 h) [µM]
1 | – | – | – | COc1cccc2c1C(=O)c1c(O)c3c(c(O)c1C2=O)C[C@@](O)(C(=O)CO)C[C@@H]3O[C@H]1C[C@H](N)[C@H](O)[C@H](C)O1 [Doxorubicin, reference compound] | 4.8 ± 0.5 | 5.6 ± 0.3 | 6.5 ± 0.5 | 32.1 ± 3.1 | – | – | – | –
2 | 210 to 212 | 28.4 ± 0.5 | 21.38 ± 0.15 | CC(=O)O[C@@H]1[C@@H](OC(C)=O)[C@H](OC(C)=O)CO[C@H]1n1cc(CSc2nc3ccccc3c(=O)n2-c2ccccc2)nn1 [Compound 8, 2-(((1-[2,3,4-tri-O-acetyl-β-D-xylopyranosyl]-1 H-1,2,3-triazol-4-yl)methyl)thio)-3-phenylquinazolin-4(3 H)-one] | 21.4 ± 3.1 | 14 ± 1.2 | < 3.12 | > 25 | – | – | – | –
3 | 90 to 92 | 32.25 ± 0.25 | 18.63 ± 0.14 | CC(=O)OC[C@H]1O[C@@H](n2cc(CSc3nc4ccccc4c(=O)n3-c3ccccc3)nn2)[C@H](OC(C)=O)[C@@H](OC(C)=O)[C@H]1OC(C)=O [Compound 6, 2-(((1-[2,3,4,6-Tetra-O-acetyl-β-D-galactopyranosyl]-1 H-1,2,3-triazol-4-yl)methyl)thio)-3-phenylquinazolin-4(3 H)-one] | 19.2 ± 2.1 | 13.4 ± 1.2 | 3.2 ± 0.1 | > 25 | – | – | – | –
4 | – | – | – | C#CCSc1nc2ccccc2c(=O)n1-c1ccccc1 [Compound 3] | > 25 | 15.9 ± 1.3 | 14.8 ± 1.6 | > 25 | – | – | – | –
5 | 163 to 165 | – | – | C#CCSc1nc2ccccc2c(=O)n1C [Compound 4, 3-methyl-2-(prop-2-yn-1-ylthio)quinazolin-4(3 H)-one] | 21.9 ± 2.7 | 14.6 ± 1.1 | 13.5 ± 1.1 | > 25 | – | – | – | –
6 | – | – | – | Cn1c(S)nc2ccccc2c1=O [Compound 2] | 24.1 ± 3.1 | 14.9 ± 1.3 | 16.1 ± 1.3 | > 25 | – | – | – | –
7 | – | 22.86 ± 0.13 | 0.35 ± 0.11 | Cn1c(SCc2cn([C@@H]3O[C@H](CO)[C@H](O)[C@H](O)[C@H]3O)nn2)nc2ccccc2c1=O [Compound 11, 2-(((1-[β-D-Galactopyranosyl]-1 H-1,2,3-triazol-4-yl)methyl)thio)-3-methylquinazolin-4(3 H)-one] | 17.8 ± 2.1 | 5.7 ± 0.2 | 5.9 ± 0.1 | > 25 | – | – | – | –
8 | – | 36.33 ± 0.17 | 17.94 ± 0.1 | CC(=O)OC[C@H]1O[C@@H](n2cc(CSc3nc4ccccc4c(=O)n3C)nn2)[C@H](OC(C)=O)[C@@H](OC(C)=O)[C@H]1OC(C)=O [Compound 7, 2-(((1-[2,3,4,6-Tetra-O-acetyl-β-D-galactopyranosyl]-1 H-1,2,3-triazol-4-yl)methyl)thio)-3-methylquinazolin-4(3 H)-one] | 21.5 ± 2.5 | 17.3 ± 0.5 | 5.5 ± 0.1 | 22.9 ± 3.2 | – | – | – | –
9 | – | – | – | C#Cc1cccc(Nc2ncnc3cc(OCCOC)c(OCCOC)cc23)c1 [Erlotinib, reference compound] | – | – | – | – | 7.8 ± 0.2 | 4.3 ± 0.1 | 7.3 ± 0.2 | 58.3 ± 1.4
10 | 146 to 148 | 30.6 ± 0.32 | 23.05 ± 0.08 | CC(=O)O[C@@H]1[C@@H](OC(C)=O)[C@H](OC(C)=O)CO[C@H]1n1cc(CSc2nc3ccccc3c(=O)n2C)nn1 [Compound 9, 2-(((1-[2,3,4-tri-O-acetyl-β-D-xylopyranosyl]-1 H-1,2,3-triazol-4-yl)methyl)thio)-3-methylquinazolin-4(3 H)-one] | 22.9 ± 2.3 | 12.6 ± 1.3 | 3.2 ± 0.2 | > 25 | – | – | – | –
11 | – | 13.63 ± 0.08 | 15.88 ± 0.14 | O=c1c2ccccc2nc(SCc2cn([C@@H]3OC[C@@H](O)[C@H](O)[C@H]3O)nn2)n1-c1ccccc1 [Compound 12, 2-(((1-[β-D-Xylopyranosyl]-1 H-1,2,3-triazol-4-yl)methyl)thio)-3-phenylquinazolin-4(3 H)-one] | 15.1 ± 1.9 | 6.9 ± 0.3 | 3 ± 0.3 | 24.7 ± 2.4 | – | – | – | –
12 | – | – | – | O=c1c2ccccc2nc(S)n1-c1ccccc1 [Compound 1] | 21.9 ± 1.9 | 16.1 ± 1.1 | 18.6 ± 1.5 | > 25 | – | – | – | –
13 | – | 22.33 ± 0.1 | 16.75 ± 0.05 | O=c1c2ccccc2nc(SCc2cn([C@@H]3O[C@H](CO)[C@H](O)[C@H](O)[C@H]3O)nn2)n1-c1ccccc1 [Compound 10, 2-(((1-[β-D-Galactopyranosyl]-1 H-1,2,3-triazol-4-yl)methyl)thio)-3-phenylquinazolin-4(3 H)-one] | 17.1 ± 1.1 | 8.1 ± 0.6 | 6.4 ± 0.4 | 23.5 ± 3.1 | – | – | – | –
